According to ChEMBL document CHEMBL5465560, “Selectivity Literature for EUbOPEN Chemogenomic Library” (2024):

Key:
[1] = biological target: Mitogen-activated protein kinase kinase kinase 11 (Homo sapiens) (UniProt Q16584); experiment: Selectivity interaction (KinomeScan (DiscoverX)) EUB0000229b MAP3K11; settings: at 10 µM
[2] = biological target: T1, 5-hydroxytryptamine receptor 1A (Homo sapiens) (UniProt P08908); experiment: Selectivity interaction (Safety Panel 44tm (Eurofins)) EUB0000162b HTR1A; settings: at 10 µM
T1 sequence (whole entry): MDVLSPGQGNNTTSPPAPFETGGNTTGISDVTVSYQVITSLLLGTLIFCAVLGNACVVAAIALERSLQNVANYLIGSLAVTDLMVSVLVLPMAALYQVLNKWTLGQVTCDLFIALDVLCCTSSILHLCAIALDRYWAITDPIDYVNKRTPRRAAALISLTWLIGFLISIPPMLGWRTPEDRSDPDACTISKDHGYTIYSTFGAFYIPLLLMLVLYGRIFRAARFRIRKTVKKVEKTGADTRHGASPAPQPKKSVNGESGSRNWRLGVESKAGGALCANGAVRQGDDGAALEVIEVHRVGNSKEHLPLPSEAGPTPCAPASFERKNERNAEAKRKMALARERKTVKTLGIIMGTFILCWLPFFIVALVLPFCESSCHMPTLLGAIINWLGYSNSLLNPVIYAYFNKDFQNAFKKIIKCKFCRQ

Aurora kinase B = Aurora kinase B (Homo sapiens, UniProt Q96GD4); experiment: Selectivity interaction (KinomeScan (DiscoverX)) EUB0000655a AURKB; settings: at 10 µM
[3] = biological target: Calcium/calmodulin-dependent protein kinase type II subunit alpha (Homo sapiens, UniProt Q9UQM7); experiment: Selectivity interaction (KinomeScan (DiscoverX)) EUB0000655a CAMK2A; settings: at 10 µM
[4] = biological target: Tyrosine-protein kinase FRK (Homo sapiens) (UniProt P42685); settings: at 10 µM
[5] = biological target: Wee1-like protein kinase (Homo sapiens) (UniProt P30291); experiment: Selectivity interaction (LanthaScreen Eu Kinase Binding Assay) EUB0001632a WEE1; settings: at 10 µM
[6] = biological target: Phosphatidylinositol 4,5-bisphosphate 3-kinase catalytic subunit gamma isoform (Homo sapiens) (UniProt P48736); experiment: Selectivity interaction (Adapta Assay) EUB0001632a PIK3CG; settings: at 10 µM
[7] = biological target: Ephrin type-A receptor 7 (Homo sapiens) (UniProt Q15375); experiment: Selectivity interaction (Kinase panel (Invitrogen)) EUB0000639a EPHA7; settings: at 200 nM
[8] = biological target: Ribosomal protein S6 kinase alpha-6 (Homo sapiens, UniProt Q9UK32); experiment: Selectivity interaction (KinomeScan (DiscoverX)) EUB0001049a RPS6KA6; settings: at 1 µM
[9] = biological target: T2, Rhodopsin kinase GRK7 (Homo sapiens) (UniProt Q8WTQ7); experiment: Selectivity interaction (KinomeScan (DiscoverX)) EUB0000045b GRK7
T2 sequence (whole entry): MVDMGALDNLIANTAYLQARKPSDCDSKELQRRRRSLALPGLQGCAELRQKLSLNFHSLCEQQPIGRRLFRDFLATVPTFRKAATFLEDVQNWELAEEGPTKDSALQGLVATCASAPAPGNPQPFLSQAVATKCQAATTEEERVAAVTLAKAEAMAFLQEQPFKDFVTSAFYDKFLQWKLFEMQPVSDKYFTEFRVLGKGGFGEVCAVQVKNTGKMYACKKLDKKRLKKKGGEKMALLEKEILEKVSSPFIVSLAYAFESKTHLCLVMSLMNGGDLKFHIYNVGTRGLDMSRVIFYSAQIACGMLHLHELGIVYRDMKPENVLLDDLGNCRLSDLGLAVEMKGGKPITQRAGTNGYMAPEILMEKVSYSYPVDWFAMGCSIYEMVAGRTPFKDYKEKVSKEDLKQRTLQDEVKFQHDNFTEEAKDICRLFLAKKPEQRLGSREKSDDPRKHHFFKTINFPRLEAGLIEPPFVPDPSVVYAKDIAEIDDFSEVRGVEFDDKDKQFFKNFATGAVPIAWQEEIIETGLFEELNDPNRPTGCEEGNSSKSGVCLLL

[10] = biological target: T3, Serine/threonine-protein kinase Nek3 (Homo sapiens) (UniProt P51956); experiment: Selectivity interaction (KinomeScan (DiscoverX)) EUB0000045b NEK3
T3 sequence (whole entry): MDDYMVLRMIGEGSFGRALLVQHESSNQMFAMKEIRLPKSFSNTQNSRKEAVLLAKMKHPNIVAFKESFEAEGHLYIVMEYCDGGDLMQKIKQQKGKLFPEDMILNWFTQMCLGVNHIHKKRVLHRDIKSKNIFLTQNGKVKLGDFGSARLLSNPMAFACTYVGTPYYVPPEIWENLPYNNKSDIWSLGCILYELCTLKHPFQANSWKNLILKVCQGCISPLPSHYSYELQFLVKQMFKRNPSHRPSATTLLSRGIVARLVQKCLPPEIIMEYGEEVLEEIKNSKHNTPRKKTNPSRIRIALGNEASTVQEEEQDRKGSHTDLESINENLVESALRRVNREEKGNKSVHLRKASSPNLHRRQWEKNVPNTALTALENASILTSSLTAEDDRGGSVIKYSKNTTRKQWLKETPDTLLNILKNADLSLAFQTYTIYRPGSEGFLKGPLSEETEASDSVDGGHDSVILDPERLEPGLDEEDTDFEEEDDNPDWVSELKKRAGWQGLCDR

[11] = biological target: Bone morphogenetic protein receptor type-1A (Homo sapiens, UniProt P36894); experiment: Selectivity interaction (KinomeScan (DiscoverX)) EUB0001619a BMPR1A; settings: at 1 µM
Bone morphogenetic protein receptor type-1A, sequence (P36894 whole entry): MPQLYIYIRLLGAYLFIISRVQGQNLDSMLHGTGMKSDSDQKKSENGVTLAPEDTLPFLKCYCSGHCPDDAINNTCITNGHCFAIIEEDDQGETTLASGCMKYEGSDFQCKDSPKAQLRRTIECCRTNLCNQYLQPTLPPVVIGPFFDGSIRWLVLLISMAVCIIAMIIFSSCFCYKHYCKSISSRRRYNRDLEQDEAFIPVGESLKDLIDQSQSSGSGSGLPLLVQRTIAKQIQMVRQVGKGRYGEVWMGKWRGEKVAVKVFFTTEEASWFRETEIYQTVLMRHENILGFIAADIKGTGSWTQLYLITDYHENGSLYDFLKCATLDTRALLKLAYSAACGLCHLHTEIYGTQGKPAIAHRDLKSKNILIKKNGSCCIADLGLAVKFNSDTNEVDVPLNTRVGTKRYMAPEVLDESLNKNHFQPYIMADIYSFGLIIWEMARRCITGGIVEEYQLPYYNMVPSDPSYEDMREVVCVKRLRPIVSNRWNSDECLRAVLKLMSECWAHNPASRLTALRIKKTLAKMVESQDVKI

Ribosomal protein S6 kinase alpha-6, sequence (Q9UK32 whole entry): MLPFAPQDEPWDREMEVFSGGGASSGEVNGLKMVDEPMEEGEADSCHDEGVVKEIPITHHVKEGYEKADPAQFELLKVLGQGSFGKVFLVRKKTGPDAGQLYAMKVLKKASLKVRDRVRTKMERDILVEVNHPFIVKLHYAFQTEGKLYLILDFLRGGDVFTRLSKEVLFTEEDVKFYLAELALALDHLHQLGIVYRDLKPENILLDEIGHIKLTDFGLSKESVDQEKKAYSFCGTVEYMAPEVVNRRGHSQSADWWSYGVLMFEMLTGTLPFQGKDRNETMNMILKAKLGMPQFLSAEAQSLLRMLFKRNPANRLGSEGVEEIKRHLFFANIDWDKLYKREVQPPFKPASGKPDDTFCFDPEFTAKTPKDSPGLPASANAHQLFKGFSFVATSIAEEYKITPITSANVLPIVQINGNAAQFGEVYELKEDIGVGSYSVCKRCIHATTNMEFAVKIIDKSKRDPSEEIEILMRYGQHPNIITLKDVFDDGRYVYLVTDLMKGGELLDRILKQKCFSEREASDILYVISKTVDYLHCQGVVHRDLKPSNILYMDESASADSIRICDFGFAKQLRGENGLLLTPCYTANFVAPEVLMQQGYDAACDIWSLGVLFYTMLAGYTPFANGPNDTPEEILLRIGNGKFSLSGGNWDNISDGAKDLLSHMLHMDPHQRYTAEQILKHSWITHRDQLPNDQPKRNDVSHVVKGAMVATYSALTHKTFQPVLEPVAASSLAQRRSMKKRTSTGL
Wee1-like protein kinase (Homo sapiens), sequence (P30291 whole entry, looked up, canonical isoform): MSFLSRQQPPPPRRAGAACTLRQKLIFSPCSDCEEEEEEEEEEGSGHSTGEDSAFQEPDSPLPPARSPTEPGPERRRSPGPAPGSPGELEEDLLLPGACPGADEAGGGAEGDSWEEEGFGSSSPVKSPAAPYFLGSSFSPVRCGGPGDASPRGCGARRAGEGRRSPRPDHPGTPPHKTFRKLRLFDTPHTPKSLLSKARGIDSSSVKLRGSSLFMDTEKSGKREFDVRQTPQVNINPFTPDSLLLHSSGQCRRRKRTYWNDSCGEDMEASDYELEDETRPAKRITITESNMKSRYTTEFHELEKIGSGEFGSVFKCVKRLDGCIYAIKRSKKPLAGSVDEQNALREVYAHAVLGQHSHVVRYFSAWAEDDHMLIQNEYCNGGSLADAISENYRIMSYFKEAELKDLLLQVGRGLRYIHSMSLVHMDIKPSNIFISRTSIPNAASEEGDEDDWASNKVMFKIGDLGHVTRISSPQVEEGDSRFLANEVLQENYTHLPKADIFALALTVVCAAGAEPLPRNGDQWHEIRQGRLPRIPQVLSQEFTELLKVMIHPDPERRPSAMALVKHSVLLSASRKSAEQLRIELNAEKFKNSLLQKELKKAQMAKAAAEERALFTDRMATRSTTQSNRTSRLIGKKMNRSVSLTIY
Phosphatidylinositol 4,5-bisphosphate 3-kinase catalytic subunit gamma isoform (Homo sapiens), sequence (P48736 whole entry, looked up, canonical isoform): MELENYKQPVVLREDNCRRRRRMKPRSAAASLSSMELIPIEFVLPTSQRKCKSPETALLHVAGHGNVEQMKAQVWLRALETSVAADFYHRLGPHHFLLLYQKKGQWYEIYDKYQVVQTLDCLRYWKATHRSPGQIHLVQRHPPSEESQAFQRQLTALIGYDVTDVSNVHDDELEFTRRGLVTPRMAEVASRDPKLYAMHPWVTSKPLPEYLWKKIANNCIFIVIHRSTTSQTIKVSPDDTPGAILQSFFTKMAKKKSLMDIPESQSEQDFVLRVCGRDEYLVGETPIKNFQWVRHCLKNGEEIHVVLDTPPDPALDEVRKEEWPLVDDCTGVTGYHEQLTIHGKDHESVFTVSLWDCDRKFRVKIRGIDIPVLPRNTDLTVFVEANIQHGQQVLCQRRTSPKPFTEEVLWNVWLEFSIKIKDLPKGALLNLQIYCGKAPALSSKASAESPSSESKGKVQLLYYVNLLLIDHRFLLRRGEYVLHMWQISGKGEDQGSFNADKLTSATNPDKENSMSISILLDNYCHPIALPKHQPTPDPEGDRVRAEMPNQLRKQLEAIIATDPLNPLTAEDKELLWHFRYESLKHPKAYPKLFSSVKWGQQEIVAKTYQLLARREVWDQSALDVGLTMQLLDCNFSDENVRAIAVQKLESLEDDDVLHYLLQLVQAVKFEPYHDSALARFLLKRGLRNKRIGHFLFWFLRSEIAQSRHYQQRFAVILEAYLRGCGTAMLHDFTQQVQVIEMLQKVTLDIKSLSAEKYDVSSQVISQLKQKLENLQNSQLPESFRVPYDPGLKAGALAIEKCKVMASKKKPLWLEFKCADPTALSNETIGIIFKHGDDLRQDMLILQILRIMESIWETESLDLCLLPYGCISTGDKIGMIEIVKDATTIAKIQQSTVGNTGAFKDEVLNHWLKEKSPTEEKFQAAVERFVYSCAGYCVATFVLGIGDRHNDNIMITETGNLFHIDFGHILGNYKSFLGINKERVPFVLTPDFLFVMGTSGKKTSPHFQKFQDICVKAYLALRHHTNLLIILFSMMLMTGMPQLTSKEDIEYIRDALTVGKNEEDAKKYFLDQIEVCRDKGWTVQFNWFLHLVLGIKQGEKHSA
Calcium/calmodulin-dependent protein kinase type II subunit alpha, sequence (Q9UQM7 whole entry): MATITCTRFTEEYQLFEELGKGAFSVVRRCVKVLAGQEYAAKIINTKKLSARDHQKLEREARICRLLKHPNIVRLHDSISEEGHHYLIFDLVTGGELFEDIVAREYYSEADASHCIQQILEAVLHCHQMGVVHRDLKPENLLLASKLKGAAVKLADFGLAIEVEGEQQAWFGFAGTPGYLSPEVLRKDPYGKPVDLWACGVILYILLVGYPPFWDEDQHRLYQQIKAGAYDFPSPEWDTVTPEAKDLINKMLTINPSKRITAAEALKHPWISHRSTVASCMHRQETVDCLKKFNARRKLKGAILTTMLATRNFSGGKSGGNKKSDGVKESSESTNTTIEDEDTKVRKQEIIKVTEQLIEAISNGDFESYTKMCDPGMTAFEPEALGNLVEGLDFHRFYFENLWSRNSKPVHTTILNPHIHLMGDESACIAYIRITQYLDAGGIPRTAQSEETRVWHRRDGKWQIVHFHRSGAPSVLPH
Tyrosine-protein kinase FRK (Homo sapiens), sequence (P42685 whole entry): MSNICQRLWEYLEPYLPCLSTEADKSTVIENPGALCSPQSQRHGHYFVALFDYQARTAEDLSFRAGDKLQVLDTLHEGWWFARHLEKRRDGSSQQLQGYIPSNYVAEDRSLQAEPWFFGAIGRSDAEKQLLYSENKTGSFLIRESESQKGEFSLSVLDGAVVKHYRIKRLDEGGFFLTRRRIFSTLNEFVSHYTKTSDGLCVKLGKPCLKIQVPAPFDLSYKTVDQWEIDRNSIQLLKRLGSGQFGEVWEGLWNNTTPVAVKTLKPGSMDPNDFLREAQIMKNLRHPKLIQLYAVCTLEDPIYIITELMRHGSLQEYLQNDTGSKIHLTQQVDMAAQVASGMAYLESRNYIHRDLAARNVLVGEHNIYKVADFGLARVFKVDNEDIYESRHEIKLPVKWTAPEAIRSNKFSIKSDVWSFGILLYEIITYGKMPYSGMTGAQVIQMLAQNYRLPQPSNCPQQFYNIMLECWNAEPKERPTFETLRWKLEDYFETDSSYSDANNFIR
Ephrin type-A receptor 7 (Homo sapiens), sequence (Q15375 28-998 limits assumed): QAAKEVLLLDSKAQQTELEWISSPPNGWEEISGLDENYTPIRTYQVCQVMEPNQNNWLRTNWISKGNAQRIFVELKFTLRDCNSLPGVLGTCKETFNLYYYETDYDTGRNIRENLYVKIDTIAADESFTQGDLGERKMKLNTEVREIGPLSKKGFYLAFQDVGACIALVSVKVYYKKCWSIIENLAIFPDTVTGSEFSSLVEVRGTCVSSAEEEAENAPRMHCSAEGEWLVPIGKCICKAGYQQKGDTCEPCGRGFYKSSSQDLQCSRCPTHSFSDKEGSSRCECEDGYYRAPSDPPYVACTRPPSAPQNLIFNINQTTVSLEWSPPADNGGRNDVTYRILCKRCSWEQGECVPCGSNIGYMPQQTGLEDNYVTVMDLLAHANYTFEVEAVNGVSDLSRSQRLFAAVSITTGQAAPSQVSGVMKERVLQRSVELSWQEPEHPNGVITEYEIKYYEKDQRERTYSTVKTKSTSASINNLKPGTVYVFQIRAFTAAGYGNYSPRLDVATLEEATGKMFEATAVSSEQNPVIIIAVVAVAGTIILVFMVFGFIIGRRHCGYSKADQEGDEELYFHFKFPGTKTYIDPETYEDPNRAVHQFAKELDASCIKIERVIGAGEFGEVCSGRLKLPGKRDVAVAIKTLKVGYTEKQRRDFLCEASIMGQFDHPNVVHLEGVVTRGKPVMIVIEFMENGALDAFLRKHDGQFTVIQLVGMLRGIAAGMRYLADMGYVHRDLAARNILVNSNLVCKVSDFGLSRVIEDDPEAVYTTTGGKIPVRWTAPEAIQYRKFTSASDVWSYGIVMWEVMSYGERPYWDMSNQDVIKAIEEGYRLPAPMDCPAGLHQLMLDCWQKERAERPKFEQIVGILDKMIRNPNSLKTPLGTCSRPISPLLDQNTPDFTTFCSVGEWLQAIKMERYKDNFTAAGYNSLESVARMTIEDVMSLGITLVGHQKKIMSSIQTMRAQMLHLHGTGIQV

COc1cc(N(C)c2ccnc3ccc(C(F)(F)F)cc23)cc(OC)c1OC
% binding [1]: 92%

CN(C)C(=O)Cn1cc(-c2ccc(-c3cncc4ccccc34)cc2)cn1
% of control [2]: 50%

CN(C)CCOc1ccc(-c2nc(-c3ccncc3)c(-c3ccc4c(c3)CC/C4=N\O)[nH]2)cc1
% of control (Aurora kinase B): 100% | % of control [3]: 88%

Cc1cc([C@@H](C)Nc2ccccc2C(=O)O)c2nc(N3CCOCC3)cc(=O)n2c1 [AZD-6482]
% of control [4]: 83%

Cn1cc(-n2cnc3c(NCc4nc5cc(Cl)c(Cl)cc5[nH]4)nc(N4CCOCC4)nc32)cn1
% of inhibition [5]: -20.9% | % of inhibition [6]: 29.5%

CC[C@@H]1[C@H](F)C(=O)N[C@@H]1COc1nccc2cc(C(N)=O)c(OC)cc12 [ZIMLOVISERTIB]
% of inhibition [7]: -7.96%

COc1cc(Nc2nc(C)cc(-c3cnn4nc(OC)ccc34)n2)cc(C(F)(F)F)c1
% of control [8]: 82%

C=CC(=O)Nc1cc(-n2c(=O)ccc3cnc4ccc(-c5ccc(NS(C)(=O)=O)cc5)cc4c32)ccc1C
% of control ([9]; at 1 µM): 75% | % of control ([9]; at 10 µM): 84% | % of control ([10]; at 1 µM): 98% | % of control ([10]; at 10 µM): 100%

N#Cc1cccc(-c2c[nH]c3ncnc(N4CCOCC4)c23)c1
% of control [11]: 98%
